Measured values as given in ChEMBL document CHEMBL1772958, “In vivo activity of benzoyl ester clerodane diterpenoid derivatives from Dodonaea polyandra” (2011).
The source made the active and inactive calls. The calls are words filed in the database; no cut-off is given here.

Experiments:
[1] = system: Mus musculus; assay: Antiinflammatory activity against TPA-induced ear edema in mouse assessed as ear thickness at 0.90 umol/ear, sc administered 30 mins after TPA challenge measured after 2 to 48 hrs; format: functional, organism-based
[2] = system: Mus musculus; assay: Antiinflammatory activity against TPA-induced ear edema in mouse assessed as ear thickness, sc administered 30 mins after TPA challenge measured after 2 to 48 hrs; format: functional, organism-based
[3] = system: Mus musculus; assay: Antiinflammatory activity against TPA-induced ear edema in mouse assessed as ear thickness at 0.22 umol/ear, topically administered 30 mins after TPA challenge measured after 8 hrs
[4] = system: Mus musculus; assay: Antiinflammatory activity against TPA-induced ear edema in mouse assessed as ear thickness at 0.088 to 1.77 umol/ear, sc administered 30 mins after TPA challenge measured after 2 to 48 hrs; format: functional, organism-based
[5] = system: Mus musculus; assay: Antiinflammatory activity against TPA-induced ear edema in mouse assessed as ear thickness at 0.91 umol/ear, sc administered 30 mins after TPA challenge measured after 2 to 48 hrs; format: functional
[6] = system: Mus musculus; assay: Antiinflammatory activity against TPA-induced ear edema in mouse assessed as ear thickness at 1.83 umol/ear, sc administered 30 mins after TPA challenge measured after 2 to 48 hrs; format: functional, organism-based
[7] = system: Mus musculus; assay: Antiinflammatory activity against TPA-induced ear edema in mouse assessed as ear thickness at 0.023 to 0.91 umol/ear, sc administered 30 mins after TPA challenge measured after 2 to 48 hrs; format: functional, organism-based

Structure (SMILES): CCC(=O)OCC(=O)[C@@]1(OC(=O)CC)[C@@H](C)C[C@H]2[C@@H]3CCC4=CC(=O)C=C[C@]4(C)[C@@]3(F)[C@@H](O)C[C@@]21C
- inhibition [1]: Active

Structure (SMILES): C[C@@]1(CCc2ccoc2)[C@H](COC(=O)c2ccccc2)CC[C@]2(C)C(C(=O)O)=C[C@H](O)C[C@H]12 (relative stereo)
- Activity [2]: Active
- inhibition (INH) [3]: 70.2%
- Activity [4]: Active

Structure (SMILES): C[C@@H]1CC[C@]2(C)C(C(=O)O)=C[C@H](OC(=O)c3ccccc3)C[C@@H]2[C@]1(C)CCc1ccoc1 (relative stereo)
- inhibition (INH) [5]: 76.4%

Structure (SMILES): C[C@@]1(CCc2ccoc2)[C@H](COC(=O)c2ccccc2)CC[C@]2(C)C(C(=O)O)=CCC[C@H]12 (relative stereo)
- Activity [6]: Active
- Activity [7]: inactive
